Laboratory results reported in US9936701B2, “Herbicidal compounds” (Syngenta Participations AG, priority 2013, dated 2018).

Key:
[1] = system: a variety of test species; assay: Pre-emergence herbicidal activity (glasshouse, sprayed one day after sowing, evaluated after 13 days); type: in vivo; design: key: 5=total damage to plant; 0=no damage to plant; conditions: application pre-emergence, rate 1000 g/Ha, scale 0-5
Summary of the method: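 Compounds are applied pre-emergence as an aqueous spray, formulated in 50:50 acetone/water containing 0.5% Tween 20, to pots sown one day earlier. Plants grow in a controlled glasshouse and are scored 13 days later for damage from 0 to 5.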

[2] = system: a variety of test species; assay: Post-emergence herbicidal activity (glasshouse, sprayed after 8 days cultivation, evaluated after 13 days); type: in vivo; design: key: 5=total damage to plant; 0=no damage to plant; conditions: rate 1000 g/Ha, scale 0-5
Summary of the method: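 Pot-grown plants, 8 days after sowing, were sprayed with compound formulated in acetone/water (50:50) with 0.5% Tween 20. Glasshouse conditions 24/16° C day/night, 14 h light, 65% humidity; damage scored after 13 days on a 0 (none) to 5 (total) scale.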

Structure (SMILES)	Pre-emergence herbicidal damage score, ABUTH [1]	Pre-emergence herbicidal damage score, ALOMY [1]	Pre-emergence herbicidal damage score, AMARE [1]	Pre-emergence herbicidal damage score, ECHCG [1]	Pre-emergence herbicidal damage score, SETFA [1]	Pre-emergence herbicidal damage score, ZEAMX [1]	ABUTH (Abutilon theophrasti) damage score, application post-emergence [2]	ALOMY (Alopecurus myosuroides) damage score, application post-emergence [2]	AMARE (Amaranthus retroflexus) damage score, application post-emergence [2]	ECHCG (Echinochloa crus-galli) damage score, application post-emergence [2]	SETFA (Setaria faberi) damage score, application post-emergence [2]	ZEAMX (Zea mays) damage score, application post-emergence [2]	melting point [°C]
CC1=C(Cl)C(=O)N(c2cc(C(C)(C)C)on2)C1O (stereo not drawn) [A2, 1-(5-tert-butylisoxazol-3-yl)-4-chloro-2-hydroxy-3-methyl-2H-pyrrol-5-one]	5	3	5	5	5	3	5	5	5	5	5	5	156 to 158
CC1=C(Cl)C(=O)N(c2cc(C(C)C)on2)C1O (stereo not drawn) [A11]	5	4	5	5	5	2	5	5	5	5	5	5	126 to 128
CC1=C(Cl)C(=O)N(c2cc(CC(C)C)on2)C1O (stereo not drawn) [A12]	5	4	4	5	5	1	5	5	5	5	5	4	138 to 140
CC1=C(Cl)C(=O)N(c2noc(C(C)(C)C)c2F)C1O (stereo not drawn) [A19, 1-(5-tert-butyl-4-fluoro-isoxazol-3-yl)-4-chloro-2-hydroxy-3-methyl-2H-pyrrol-5-one]	–	4	5	5	5	–	–	5	5	5	5	–	98 to 100
CC1=C(Cl)C(=O)N(c2noc(C(C)(C)C)c2C)C1O (stereo not drawn) [A20, 1-(5-tert-butyl-4-methyl-isoxazol-3-yl)-4-chloro-2-hydroxy-3-methyl-2H-pyrrol-5-one]	–	4	1	5	5	–	–	5	4	5	5	–	134 to 136
CC1=C(Cl)C(=O)N(c2cc(C3CCC3)on2)C1O (stereo not drawn) [A21]	–	3	5	5	3	–	–	5	5	5	5	–	130 to 132
CC1=C(Cl)C(=O)N(c2cc(C3CC3)on2)C1O (stereo not drawn) [A22]	5	4	4	5	5	1	5	5	5	5	5	4	174 to 176
CC1=C(Cl)C(=O)N(c2noc(C(C)(C)C)c2Br)C1O (stereo not drawn) [A23, 1-(4-bromo-5-tert-butyl-isoxazol-3-yl)-4-chloro-2-hydroxy-3-methyl-2H-pyrrol-5-one]	5	4	5	5	3	3	5	5	5	5	5	4	158 to 160
CC1=C(Cl)C(=O)N(c2cc(C(C)(C)C(N)=O)on2)C1O (stereo not drawn) [A67, 2-[3-(4-chloro-2-hydroxy-3-methyl-5-oxo-2H-pyrrol-1-yl)isoxazol-5-yl]-2-methyl-propanamide]	–	–	–	–	–	–	–	–	–	–	–	–	169 to 171
COC1=C(OC)C(O)N(c2cc(C(C)(C)C)on2)C1=O (stereo not drawn) [F1]	5	3	5	4	4	2	5	4	5	5	5	5	–
COC1=C(C)C(=O)N(c2cc(C(C)(C)C)on2)C1O (stereo not drawn) [G1]	5	3	5	5	4	1	5	5	5	5	5	5	–
COC1=C(C)C(=O)N(c2cc(C)on2)C1O (stereo not drawn) [G2]	5	1	5	3	3	1	3	2	5	2	1	1	–
COCC(C)(C)c1cc(N2C(=O)C(C)=C(OC)C2O)no1 (stereo not drawn) [G3]	5	3	5	5	5	4	5	4	3	5	5	5	–
COC1=C(C)C(=O)N(c2noc(C(C)(C)C)c2C#N)C1O (stereo not drawn) [G7]	5	4	5	5	5	4	5	5	5	5	5	5	–
